Assay [1] has as its system MDA-MB-435 cancer cells. Briefly: Antiproliferative sulforhodamine B (SRB) assay in MDA-MB-435 cells. The format is cell-based, human. On the technique in general: Sulforhodamine B stains cellular protein and so reports cell mass.
The test system of assay [2] is A-10 cells. Briefly: Cellular microtubule depolymerization (loss of cellular microtubules) in A-10 cells. Type of assay: cell-based.
For assay [3], the system named is SK-OV-3. Briefly: Antiproliferative SRB assay, parental SK-OV-3. Type of assay: cell-based, human.
The subject of assay [4] is SK-OV-3 MDR-1-6/6. As to the kind of experiment: cells. The format is cell-based, human.
For assay [5], the system named is HeLa. As to the kind of experiment: Antiproliferative SRB assay, parental HeLa. Type of assay: cell-based, human. The source says: (§1) A second clinically relevant mechanism of drug resistance to these microtubule agents is the expression of βIII isotype of tubulin. […] The WT βIII cell line was generated from HeLa cells transfected with the gene for/III-tubulin.

In assay [6] the test system is WT βIII cell line. Briefly: Antiproliferative SRB assay, WT βIII (HeLa transfected with βIII-tubulin). Particulars: Homo sapiens. The format is cell-based.
From the text: as §1

The test system of assay [7] is KB human tumor cells (RFC/FRα/PCFT). Briefly: Growth inhibition of KB human tumor cells. The format is cell-based. The source says: The experiments with the CHO sublines were extended to KB human nasopharyngeal carcinoma cells which express highly elevated FRα, along with RFC and PCFT.
For assay [8], the system named is PC43-10 CHO cells (human RFC). As to the kind of experiment: Growth inhibition of CHO subline PC43-10 expressing human RFC. The format is cell-based, Chinese hamster.
Assay [9] has as its system R2 CHO cells (transporter-null). Briefly: Growth inhibition of transporter-null R2 CHO cells. Type of assay: cell-based, Chinese hamster. The note with it: Cricetulus griseus.
Assay [10] relates to RT16 CHO cells (FRα). As to the kind of experiment: Growth inhibition of CHO subline RT16 expressing human FRα. Type of assay: cell-based, Chinese hamster.
The subject of assay [11] is D4 CHO cells (FRβ). Briefly: Growth inhibition of CHO subline D4 expressing FRβ. Type of assay: cell-based, Chinese hamster.
Assay [12] relates to R2/PCFT4 CHO cells (PCFT). Briefly: Growth inhibition of CHO subline R2/PCFT4 expressing human PCFT. The format is cell-based, Chinese hamster. Particulars: Cricetulus griseus.
The subject of assay [13] is tubulin (colchicine site). As to the kind of experiment: Inhibition of [3H]colchicine binding to tubulin. The note with it: 1 μM inhibitor.
The subject of assay [14] is purified tubulin. As to the kind of experiment: Inhibition of the assembly of purified tubulin. Type of assay: biochemical. Particulars: Section V Table 3; read-out: Inhibition of tubulin assembly IC50 (μM) ± SD.
For assay [15], the system named is cellular microtubules. As to the kind of experiment: Cellular microtubule depolymerization (Section V). Type of assay: cell-based. The note with it: Section V Table 2; bare values under μM head, EC50/IC50 ratio implies nM.
Assay [16] deals with T1, recombinant pjDHFR (Pneumocystis jirovecii (Human pneumocystis pneumonia agent), UniProt Q9UUP5). The note with it: Section I Table 1; cited from earlier work.
Assay [17] deals with hDHFR (Homo sapiens (Human), UniProt P00374). Briefly: Inhibition of recombinant hDHFR. The format is biochemical. The note with it: Section I Table 3; 37° C., 18 μM dihydrofolic acid; title says μM, head nM; read-out: Human DHFR.
Chain of hDHFR (P00374 whole entry): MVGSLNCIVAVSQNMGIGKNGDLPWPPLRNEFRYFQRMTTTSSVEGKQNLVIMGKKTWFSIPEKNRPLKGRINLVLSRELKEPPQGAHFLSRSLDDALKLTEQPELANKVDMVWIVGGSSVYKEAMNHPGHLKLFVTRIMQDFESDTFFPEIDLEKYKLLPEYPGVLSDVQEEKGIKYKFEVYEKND
The target in assay [18] is T1, recombinant pjDHFR. The note with it: Section I Table 3.
Where [19] appears, read: Rattus norvegicus, A10, Section II Table 1, 50% loss of cellular microtubules, read-out: Microtubule depolymerization (A-10 cells) EC50 ± SD.
Setting [20] is: Homo sapiens, Section III Table 1, read-out: KB (nM) RFC/FRα/PCFT IC50.
The mark [21] stands for this setting: Homo sapiens, Section VI Table 1, read-out: FRα/PCFT/RFC (nM) KB IC50.
Where [22] appears, read: Homo sapiens, PC43-10, Section III Table 1, read-out: PC43-10 (nM) RFC IC50.
The mark [23] stands for this setting: Homo sapiens, PC43-10, Section VI Table 1, read-out: RFC (nM) PC43-10 IC50.
The mark [24] stands for this setting: Section III Table 1, read-out: R2 (nM) Null IC50.
Where [25] appears, read: Section VI Table 1, read-out: R2 IC50.
[26] abbreviates: Cricetulus griseus, RT16, Section III Table 1, read-out: RT16 (nM) FRα IC50.
Where [27] appears, read: Cricetulus griseus, RT16, Section VI Table 1, read-out: FRα (nM) R16 IC50.
The mark [28] stands for this setting: Cricetulus griseus, CHO, Section III Table 1, read-out: D4 (nM) FRβ IC50.
The mark [29] stands for this setting: Cricetulus griseus, CHO, Section VI Table 1, read-out: FRβ (nM) D4 IC50.
Where [30] appears, read: R2/PCFT4, Section VI Table 1, read-out: PCFT (nM) R2/PCFT4 IC50.
[31] abbreviates: Section III Table 1, R2/PCFT4, read-out: PCFT4 (nM) PCFT IC50.

The values that follow come from US11078214B2, “Monocyclic thieno, pyrido, and pyrrolo pyrimidine compounds and methods of use and manufacture of same” (Duquesne University of the Holy Spirit, priority 2015, dated 2021).

Structures are written as SMILES. Where two headings read alike, the source gives them in different places.

Take `COc1ccc(N(C)c2nc(C)nc3ccsc23)cc1` [compound 2]: the IC50 in assay [1] (Homo sapiens, MDA-MB-435, read-out: MDA-MB-435 IC50 ± SD (nM)) is 198 ± 23 nM; in assay [3] (Homo sapiens, SK-OV-3, read-out: SK-OV-3 IC50 ± SD (nM)), 253 ± 23 nM; in assay [4] (Homo sapiens, SK-OV-3, read-out: SK-OV-3 MDR-1-6/6 IC50 ± SD (nM)) it was 438 ± 58 nM; in [5] (Homo sapiens, HeLa, read-out: HeLa IC50 ± SD (nM)), 186 ± 19 nM; in assay [6] (HeLa, read-out: WT βIII IC50 ± SD (nM)), 152 ± 14 nM; in [7] (Homo sapiens, read-out: FRα/PCFT/RFC (nM) KB IC50) it was 1.13 nM. The IC50 is 0.34 nM in [7] (Homo sapiens, read-out: KB (nM) RFC/FRα/PCFT IC50); over 1000 nM in [8] (Homo sapiens, PC43-10, read-out: PC43-10 (nM) RFC IC50); over 1000 nM in assay [8] (Homo sapiens, PC43-10, read-out: RFC (nM) PC43-10 IC50); over 1000 nM in [9] (read-out: R2 (nM) Null IC50); over 1000 nM in assay [9] (read-out: R2 IC50); 1.72 nM in [10] (Cricetulus griseus, RT16, read-out: FRα (nM) R16 IC50). Besides, the IC50 in assay [10] (Cricetulus griseus, RT16, read-out: RT16 (nM) FRα IC50) stood at 1.27 nM; in [11] (Cricetulus griseus, CHO, read-out: D4 (nM) FRβ IC50) it was 0.52 nM; in assay [11] (Cricetulus griseus, CHO, read-out: FRβ (nM) D4 IC50), 2.36 nM; in assay [12] (R2/PCFT4, read-out: PCFT4 (nM) PCFT IC50), 57.6 nM; in assay [12] (R2/PCFT4, read-out: PCFT (nM) R2/PCFT4 IC50), 40 nM. The EC50 (commonly the concentration at which the effect is half-maximal) in assay [2] (Rattus norvegicus, A10, read-out: Microtubule depolymerization (A-10 cells) EC50 ± SD (μM)) was 8.1 µM.

Consider `CSc1ccc(Nc2nc(C)nc3ccsc23)cc1` [compound 3], for which the EC50 in [2] (setting [19]) is over 10 µM. Moreover, the IC50 in [7] (setting [20]) is 0.48 nM; in [7] (setting [21]) it was 674 nM; in assay [8] (setting [22]) it was over 1000 nM; in [8] (setting [23]) it was over 1000 nM; in [9] (setting [24]) it was over 1000 nM; in [9] (setting [25]) it was over 1000 nM. For the same compound, the IC50 is 2.54 nM in [10] (setting [26]); over 1000 nM in assay [10] (setting [27]); 0.43 nM in [11] (setting [28]); over 1000 nM in assay [11] (setting [29]); over 1000 nM in assay [12] (setting [30]); 41.5 nM in assay [12] (setting [31]).

Turning to `COc1ccc(/C=C\c2cc(OC)c(OC)c(OC)c2)cc1O` [CA4, Combretastatin A-4, reference compound], the IC50 turned out to be 3.4 ± 0.6 nM in [1] (Section II Table 1, SRB assay, read-out: MDA-MB-435 IC50 ± SD); 4.4 ± 0.46 nM in assay [1] (Section V Table 2, read-out: IC50 MDA-MB-435); 3.4 ± 0.6 nM in assay [1] (Section VIII Table 1, read-out: IC50 ± SD (MDA-MB-435) nM cancer cells); […] in assay [3] (parental cell line, SRB, n = 3, read-out: SK-OV-3 IC50 ± SD); 6.6 ± 1.3 nM in [4] (Pgp overexpressing cell line, SRB, n = 3, read-out: SK-OV-3 MDR-1-6/6 IC50 ± SD); 4.7 ± 0.2 nM in assay [5] (parental HeLa, read-out: HeLa IC50 ± SD). Besides, the IC50 in assay [14] was […]. The concentration giving a half-maximal response (EC50) in assay [2] (Section II Table 1, nM, read-out: Microtubule depolymerization (A-10 cells) EC50) came to 0.013 µM; in [2] (Section VIII Table 1, read-out: EC50 (nM) in A-10 cells (Loss of cellular microtubules)), 0.013 µM; in assay [15] it was 9.8 µM. Moreover, in assay [13], the “Inhibition of colchicine binding % Inhibition ± SD” value is 85 ± 3%.

In the case of `COc1cc(NCc2ccc3nc(N)nc(N)c3c2C)cc(OC)c1OC` [TMQ, trimetrexate], the “Hu/Pj selectivity ratio (hDHFR/pjDHFR)” value in [16] was 0.1.

Regarding `Nc1nc2[nH]c(CCCc3ccc(C(=O)N[C@@H](CCC(=O)O)C(=O)O)cc3)cc2c(=O)[nH]1` [AGF17, reference compound], the IC50 in assay [7] (Section IV Table 1, +FA, read-out: KB (+FA) IC50) was over 1000 nM; in [7] (Section IV Table 1, read-out: RFC/FRα/PCFT KB IC50) it was 1.8 nM; in [8] (Section IV Table 1, spread in parentheses, read-out: RFC PC43-10 IC50), 648 nM; in assay [10] (Section IV Table 1, +FA, read-out: FRα RT16 (+FA) IC50), over 1000 nM; in [10] (Section IV Table 1, read-out: FRα RT16 IC50), 3.2 nM; in assay [11] (Section IV Table 1, +FA, read-out: FRβ D4 (+FA) IC50) it was over 1000 nM. Also, in assay [11] (Section IV Table 1, read-out: FRβ D4 IC50), the IC50 came out at 2.7 nM.

`COc1ccc(N(C)c2nc(C)nc3cc[nH]c23)cc1` [compound 1]: the EC50 amounted to 5.8 µM in assay [2] (setting [19]) and 5.8 µM in [2] (Rattus norvegicus, A10, Section VIII Table 1, read-out: EC50 (nM) in A-10 cells (Loss of cellular microtubules)). Besides, the IC50 in assay [3] (Homo sapiens, SK-OV-3, parental cell line, SRB, n = 3, read-out: SK-OV-3 IC50 ± SD) was 278 ± 19 nM; in [5] (Homo sapiens, parental HeLa, read-out: HeLa IC50 ± SD) it was 270 ± 26 nM; in [6] (HeLa transfected with βIII-tubulin, read-out: WT βIII IC50 ± SD), 186 ± 21 nM; in assay [7] (setting [20]), 1.9 nM; in [7] (setting [21]), 0.2 nM; in assay [8] (setting [22]), over 1000 nM. Also, the IC50 in [8] (setting [23]) was 101 nM; in assay [9] (setting [24]), over 1000 nM; in assay [9] (setting [25]), 289 nM; in [10] (setting [26]), 6.3 nM; in assay [10] (setting [27]) it was 0.19 nM; in [11] (setting [28]), 10 nM. Moreover, the IC50 in assay [11] (setting [29]) is 0.2 nM; in assay [12] (setting [30]), 3.64 nM; in [12] (setting [31]), 213 nM.

Regarding `Cc1nc(N)nc2ccc(Nc3cc(F)c(F)c(F)c3)nc12` [Compound A], the IC50 in assay [17] was determined as 3.1 µM; in assay [18] (read-out: DHFR Pj, 37° C., 18 μM dihydrofolic acid, title says μM, head nM) it was 0.87 µM. The Hu/Pj selectivity ratio in assay [18] is listed as 3.5. For the same compound, in assay [16], the “Hu/Pj selectivity ratio (hDHFR/pjDHFR)” value was 3.5.
